These results are taken from US9545445B2, “Therapeutic drug for hypertension or prehypertension” (Teijin Pharma Limited, priority 2009, dated 2017).

In the test the test system is SHRs (Spontaneously Hypertensive Rats). The test is described as follows: Systolic blood pressure of spontaneously hypertensive rats by Tail-Cuff method after administration in drinking water. In kind it is in vivo, rat. The source says: In this case, losartan (an angiotensin-receptor antagonist), enalapril (an angiotensin-converting enzyme inhibitor), amlodipine (a calcium channel blocker), and diltiazem (a calcium channel blocker) were used as representative examples of the antihypertensive agent (b). Twelve-week-old male SHRs (Spontaneously Hypertensive Rats) were used for experiment after subjecting them to quarantine for 1 week or more. At 15 or 16 weeks old, the SHRs were trained for blood pressure measurement with a Tail-Cuff method sphygmomanometer (BP-2000, Visitech systems, Napa Place, N.C., USA) for 1 to 2 weeks. After completing the training, they underwent blood pressure measurement at 17 to 18 weeks old. The animals were divided into 4 groups (10 for each) by taking care not to cause a bias in the systolic blood pressure, and the drug administration was started. Tap water was administered to a first group as a control group. A solution of each test material dissolved in tap water was administered to second to fourth groups. That is, febuxostat was administered to the second group, each antihypertensive agent of losartan, enalapril, amlodipine or diltiazem to the third group, and the mixture of febuxostat and the antihypertensive agents administered to the third group as combined administration to the fourth group. The dose of each agent was calculated from the concentration in the solution, the amount of drinking water, and the weight of the rats. After administration was carried out for 2 to 6 weeks, the value of their systolic blood pressure were measured by Tail-Cuff method.

Where [1] appears, read: male SHR, before administration (baseline of the group), Table 3 study, each agent 3 mg/kg/day.
Setting [2] is: male SHR, 42nd day after administration, each agent 3 mg/kg/day in tap water, alone or combined, Table 2 study (tap water group 226 ± 4).
Setting [3] is: male SHR, before administration (baseline of the group), Table 2 study, each agent 3 mg/kg/day.
The mark [4] stands for this setting: male SHR, 14th day after administration, each agent 3 mg/kg/day in tap water, alone or combined, Table 1 study (tap water group 233 ± 4).
[5] abbreviates: male SHR, before administration (baseline of the group), Table 1 study, each agent 3 mg/kg/day.

As for `CCOC(=O)C1=C(COCCN)NC(C)=C(C(=O)OC)C1c1ccccc1Cl` (centres unmarked) [amlodipine], the “systolic blood pressure (mean value±standard error)” value is 228 ± 3 mmHg under setting [1] and 219 ± 3 mmHg (rat, in vivo).

For the molecule `COc1ccc([C@@H]2Sc3ccccc3N(CCN(C)C)C(=O)[C@@H]2OC(C)=O)cc1` [diltiazem], the “systolic blood pressure (mean value±standard error)” value is, setting by setting: (male SHR, 42nd day after administration, diltiazem 100 mg/kg/day in tap water, Table 4 study (tap water group 233 ± 3)) 231 ± 4 mmHg; (male SHR, before administration (baseline of the group), Table 4 study, diltiazem 100 mg/kg/day) 229 ± 4 mmHg.

On to `CCOC(=O)[C@H](CCc1ccccc1)N[C@@H](C)C(=O)N1CCC[C@H]1C(=O)O` [enalapril], for which the “systolic blood pressure (mean value±standard error)” value runs as follows: under setting [2], 220 ± 5 mmHg; under setting [3], 232 ± 5 mmHg.

`Cc1nc(-c2ccc(OCC(C)C)c(C#N)c2)sc1C(=O)O` [febuxostat, 2-(3-cyano-4-isobutyloxyphenyl)-4-methyl-5-thiazolecarboxylic acid]: the “systolic blood pressure (mean value±standard error)” value under setting [4] is on record as 219 ± 4 mmHg; the “systolic blood pressure (mean value±standard error)” value (male SHR, 14th day after administration, each agent 3 mg/kg/day in tap water, alone or combined, Table 3 study (tap water group 229 ± 3)) turned out to be 215 ± 4 mmHg; the “systolic blood pressure (mean value±standard error)” value under setting [2] was 213 ± 5 mmHg; the “systolic blood pressure (mean value±standard error)” value (male SHR, 42nd day after administration, febuxostat 3 mg/kg/day in tap water, Table 4 study (tap water group 233 ± 3)) turned out to be 227 ± 4 mmHg; the “systolic blood pressure (mean value±standard error)” value under setting [5] stood at 230 ± 4 mmHg; the “systolic blood pressure (mean value±standard error)” value under setting [3] worked out at 230 ± 3 mmHg. Also, the “systolic blood pressure (mean value±standard error)” value is given as 228 ± 4 mmHg under setting [1] and 230 ± 5 mmHg (male SHR, before administration (baseline of the group), Table 4 study, febuxostat 3 mg/kg/day). Also, the “antihypertensive action (result in words)” value (male SHR, administration for 2 to 6 weeks in drinking water) is reported as “antihypertensive action”.

For the molecule `CCCCc1nc(Cl)c(CO)n1Cc1ccc(-c2ccccc2-c2nn[nH]n2)cc1` [losartan], the “systolic blood pressure (mean value±standard error)” value under setting [4] was determined as 215 ± 2 mmHg and the “systolic blood pressure (mean value±standard error)” value under setting [5] worked out at 232 ± 4 mmHg.
